{"source": "patent US20060058320A1", "about": "“[1,2,4] Triazolo[1,5-c]pyrimidine derivatives” (KYOWA HAKKO KOGYO CO., LTD., priority 2002, published 2006)", "note": "Counter-ions that a name gives are not always drawn.", "data": [{"test_system": "CGS 21680-induced catalepsy", "assay": "Activity on CGS 21680-induced catalepsy", "type": "in vivo, mice", "details": "Mus musculus, po, read-out: Remission ratio (%)", "method": "(§1) Parkinson's disease is a motor disorder based on degeneration and cell death of the nigrostriatal dopaminergic neurons. When CGS 21680 (adenosine A2A receptor agonist) is administered into the intracerebral ventricle, the inhibitory synaptic transmission of GABA in the medium sized spiny neurons in the corpus striatum is inhibited directly via the adenosine A2A receptor [Journal of Neuroscience, vol. 16, p. 605 (1996)]. Accordingly, it is concidered that the adenosine A2A receptor agonists positively regulate the output of the GABAergic neurons from the corpus striatum to the globus pallidus lateralis, and, as a result, catalepsy is induced by the administration of CGS 21680.\n(§2) The test was carried out using ten 5-week age male ddY mice (22-25 g in body weight, Japan SLC) per group. CGS 21680 (produced by RBI Co) was dissolved in physiological saline (produced by Otsuka Pharmaceutical Co., Ltd.), and 10 μg/20 μL of the solution was injected into mouse intracerebral ventricle. Each test compound was used by suspending it in distilled water containing 0.3% of polyoxylene (20) sorbitan monooleate (referred to as “Tween 80” hereinafter) (produced by Otsuka Pharmaceutical Co., Ltd.). The suspension containing each test compound or a solution containing no test Compound (distilled water containing 0.3% of Tween 80; used as a control) was orally administered (0.1 mL per 10 g of mouse body weight) 30 minutes before the injection of CGS 21680 into the intracerebral ventricle. One hour after the administration of the each test compound, only forelimbs or only hindlimbs of each mouse were laid on a vertically arranged stand made of acryl and having a size of 4.5 cm in height and 1.0 cm in width to measure catalepsy symptoms. All of the test compounds were administered orally in a dose of 10 mg/kg.\n(§3) The criteria of the catalepsy score are shown below.\n(§4) The effect was decided by a total catalepsy score of 10 mice in one group (the maximum score: 50 points). When the total score was 40 points or less, the activity of the compounds was decided positive. The number of the animals showing remission of catalepsy was expressed by the number of cases showing a catalepsy score of 4 points or less in 10 cases. The catalepsy remission ratio was expressed as the percentage of the total score in the test compound-administered group to the total score in the control group.", "units": {"inhibition in vivo at 10 mg/kg": "%"}, "values": [{"smiles": "Nc1nc(C(=O)N2CCC(Cc3ccccc3)CC2)cc2nc(-c3ccco3)nn12", "note": "[Compound 158, 5-Amino-2-(2-furyl)[1,2,4]triazolo[1,5-c]pyrimidin-7-yl 4-benzylpiperidino ketone]", "inhibition in vivo at 10 mg/kg": 86}]}, {"test_system": "CGS 21680-induced catalepsy", "assay": "Activity on CGS 21680-induced catalepsy", "type": "in vivo, mice", "details": "Mus musculus, po; from total score of test group and control group; 10 mg/kg orally; read-out: Remission ratio (%)", "method": "as §1, §2, §3, §4", "units": {"inhibition in vivo at 10 mg/kg": "%"}, "values": [{"smiles": "Nc1nc(C(=O)N2CCC(O)(Cc3ccccc3)CC2)cc2nc(-c3ccco3)nn12", "note": "[Compound 162, 5-Amino-2-(2-furyl)[1,2,4]triazolo[1,5-c]pyrimidin-7-yl 4-benzyl-4-hydroxypiperidino ketone]", "inhibition in vivo at 10 mg/kg": 72}]}, {"test_system": "CGS 21680-induced catalepsy", "assay": "Activity on CGS 21680-induced catalepsy", "type": "in vivo, mice", "details": "cases with catalepsy score of 4 points or less in 10 cases; 10 mg/kg orally", "method": "as §1, §2, §3, §4", "values": [{"smiles": "Nc1nc(C(=O)N2CCC(O)(c3ccccc3)CC2)cc2nc(-c3ccco3)nn12", "note": "[Compound 150, 5-Amino-2-(2-furyl)[1,2,4]triazolo[1,5-c]pyrimidin-7-yl (4-hydroxy-4-phenyl)piperidino ketone]", "Number of animals showing remission": 8}]}, {"test_system": "CGS 21680-induced catalepsy", "assay": "Activity on CGS 21680-induced catalepsy", "type": "in vivo, mice", "details": "from total score of test group and control group; 10 mg/kg orally", "method": "as §1, §2, §3, §4", "units": {"Remission ratio (%)": "%"}, "values": [{"smiles": "Nc1nc(C(=O)N2CCC(O)(c3ccccc3)CC2)cc2nc(-c3ccco3)nn12", "note": "[Compound 150, 5-Amino-2-(2-furyl)[1,2,4]triazolo[1,5-c]pyrimidin-7-yl (4-hydroxy-4-phenyl)piperidino ketone]", "Remission ratio (%)": 76}]}, {"test_system": "CGS 21680-induced catalepsy", "assay": "Activity on CGS 21680-induced catalepsy", "type": "in vivo, mice", "details": "total catalepsy score of 10 mice (maximum 50 points; 40 points or less = positive); 10 mg/kg orally, one hour after administration", "method": "as §1, §2, §3, §4", "values": [{"smiles": "Nc1nc(C(=O)N2CCC(O)(c3ccccc3)CC2)cc2nc(-c3ccco3)nn12", "note": "[Compound 150, 5-Amino-2-(2-furyl)[1,2,4]triazolo[1,5-c]pyrimidin-7-yl (4-hydroxy-4-phenyl)piperidino ketone]", "Total score": 11}, {"smiles": "Nc1nc(C(=O)N2CCC(Cc3ccccc3)CC2)cc2nc(-c3ccco3)nn12", "note": "[Compound 158, 5-Amino-2-(2-furyl)[1,2,4]triazolo[1,5-c]pyrimidin-7-yl 4-benzylpiperidino ketone]", "Total score": 7}, {"smiles": "Nc1nc(C(=O)N2CCC(O)(Cc3ccccc3)CC2)cc2nc(-c3ccco3)nn12", "note": "[Compound 162, 5-Amino-2-(2-furyl)[1,2,4]triazolo[1,5-c]pyrimidin-7-yl 4-benzyl-4-hydroxypiperidino ketone]", "Total score": 13}]}, {"test_system": "not given", "assay": "not given", "details": "not given", "values": [{"smiles": "Nc1nc(COc2ccccc2)cc2nc(-c3ccco3)nn12", "melting point": "247.2 to 247.4 °C"}, {"smiles": "Nc1nc(COc2cccc(Br)c2)cc2nc(-c3ccco3)nn12", "melting point": "261.5 to 261.9 °C"}, {"smiles": "Nc1nc(-c2ccco2)cc2nc(-c3ccco3)nn12", "melting point": "250.2 to 250.4 °C"}, {"smiles": "Nc1nc(C2=CCN(CC3CC3)CC2)cc2nc(-c3ccco3)nn12", "melting point": "196.9 to 197.4 °C"}, {"smiles": "CC(C)(O)CN1CC=C(c2cc3nc(-c4ccco4)nn3c(N)n2)CC1", "melting point": "197.8 to 198.1 °C"}, {"smiles": "CC(=O)NCCNC(=O)c1cc2nc(-c3ccco3)nn2c(N)n1", "melting point": "233.8 to 234 °C"}, {"smiles": "CN(C)CCN(Cc1ccccc1)C(=O)c1cc2nc(-c3ccco3)nn2c(N)n1", "melting point": "215.2 to 215.4 °C"}, {"smiles": "Nc1nc(C(=O)NCC2CCCCC2)cc2nc(-c3ccco3)nn12", "melting point": "273.5 to 274 °C"}, {"smiles": "Nc1nc(C2=CCN(CC(F)(F)F)CC2)cc2nc(-c3ccco3)nn12", "melting point": "247.5 to 248.2 °C (dec.)"}, {"smiles": "Nc1nc(/C=C/CNCC2CC2)cc2nc(-c3ccco3)nn12", "note": "(as salt: HCl) [Compound 68, 5-Amino-7-[3-(cyclopropylmethylamino)-(E)-propan-1-en-1-yl]-2-(2-furyl)[1,2,4]triazolo[1,5-c]pyrimidine]", "melting point": "263.5 to 264.2 °C"}, {"smiles": "CN(Cc1ccccc1)C(=O)c1cc2nc(-c3ccco3)nn2c(N)n1", "note": "(as salt: HCl) [Compound 78, 5-Amino-2-(2-furyl)[1,2,4]triazolo[1,5-c]pyrimidine-7-carboxylic acid (N-benzyl-N-methyl)amide]", "melting point": "188.5 to 189.1 °C"}, {"smiles": "CCN1CCN(Cc2ccc(-c3cc4nc(-c5ccco5)nn4c(N)n3)cc2)CC1", "note": "(as salt: hydrochloride)", "melting point": "265 °C (dec.)"}, {"smiles": "COc1ccc(CNCc2ccc(-c3cc4nc(-c5ccco5)nn4c(N)n3)cc2)cc1OC", "note": "(as salt: hydrochloride)", "melting point": "256.2 to 256.8 °C"}, {"smiles": "CCN1CCN(Cc2ccccc2-c2cc3nc(-c4ccco4)nn3c(N)n2)CC1", "note": "(as salt: hydrochloride)", "melting point": "253 to 253.4 °C"}, {"smiles": "COc1cc(CNCc2ccccc2-c2cc3nc(-c4ccco4)nn3c(N)n2)cc(OC)c1", "note": "(as salt: hydrochloride)", "melting point": "213.5 to 214.3 °C"}, {"smiles": "CC(=O)NCCNCc1ccccc1-c1cc2nc(-c3ccco3)nn2c(N)n1", "note": "(as salt: hydrochloride) [Compound 7, 5-Amino-7-{2-[2-(N-acetylamino)ethylaminomethyl]phenyl}-2-(2-furyl)[1,2,4]triazolo[1,5-c]pyrimidine monohydrochloride]", "melting point": "230.8 to 231.3 °C"}, {"smiles": "Nc1nc(-c2ccc(CNCCCN3CCCC3=O)cc2)cc2nc(-c3ccco3)nn12", "note": "(as salt: hydrochloride) [Compound 14, 5-Amino-2-(2-furyl)-7-{4-[3-(2-oxopyrrolidin-1-yl)propylaminomethyl]phenyl}[1,2,4]triazolo[1,5-c]pyrimidine monohydrochloride]", "melting point": "269.2 to 269.8 °C"}, {"smiles": "CC(=O)NCCNCc1ccc(-c2cc3nc(-c4ccco4)nn3c(N)n2)cc1", "note": "(as salt: hydrochloride) [Compound 16, 7-{4-[2-(N-acetylamino)ethylaminomethyl]phenyl}-5-amino-2-(2-furyl)[1,2,4]triazolo[1,5-c]pyrimidine monohydrochloride]", "melting point": "238.5 to 240 °C"}, {"smiles": "COc1cc(CNCc2ccc(-c3cc4nc(-c5ccco5)nn4c(N)n3)cc2)cc(OC)c1", "note": "(as salt: hydrochloride) [Compound 17, 5-Amino-7-[4-(3,5-dimethoxybenzylaminomethyl)phenyl]-2-(2-furyl)[1,2,4]triazolo[1,5-c]pyrimidine monohydrochloride]", "melting point": "224.6 to 225.2 °C"}, {"smiles": "COc1ccc(CNCc2cc3nc(-c4ccco4)nn3c(N)n2)cc1OC", "note": "(as salt: hydrochloride) [Compound 42, 5-Amino-7-(3,4-dimethoxybenzylaminomethyl)-2-(2-furyl)-[1,2,4]triazolo[1,5-c]pyrimidine dihydrochloride]", "melting point": "241.2 to 241.5 °C"}, {"smiles": "COc1cc(CNCc2cc3nc(-c4ccco4)nn3c(N)n2)cc(OC)c1", "note": "(as salt: hydrochloride) [Compound 43, 5-Amino-7-[(3,5-dimethoxybenzylamino)methyl]-2-(2-furyl)-[1,2,4]triazolo[1,5-c]pyrimidine dihydrochloride]", "melting point": "238.5 to 238.7 °C"}, {"smiles": "Nc1nc(CNCCc2ccccn2)cc2nc(-c3ccco3)nn12", "note": "(as salt: hydrochloride) [Compound 44, 5-Amino-7-[2-(2-pyridyl)ethylaminomethyl]-2-(2-furyl)-[1,2,4]triazolo[1,5-c]pyrimidine dihydrochloride]", "melting point": "249.5 to 249.7 °C"}, {"smiles": "Nc1nc(CNCCCN2CCCC2=O)cc2nc(-c3ccco3)nn12", "note": "(as salt: hydrochloride) [Compound 47, 5-Amino-2-(2-furyl)-7-[3-(2-oxopyrrolidin-1-yl)propylamino-methyl][1,2,4]triazolo[1,5-c]pyrimidine dihydrochloride]", "melting point": "229.1 to 229.8 °C"}, {"smiles": "CCN1CCN(Cc2cc3nc(-c4ccco4)nn3c(N)n2)CC1", "note": "(as salt: hydrochloride) [Compound 48, 5-Amino-7-(4-ethylpiperazin-1-ylmethyl)-2-(2-furyl)[1,2,4]-triazolo[1,5-c]pyrimidine trihydrochloride]", "melting point": "262 to 262.4 °C"}, {"smiles": "Nc1nc(CN2CCN(CC3CC3)CC2)cc2nc(-c3ccco3)nn12", "note": "(as salt: hydrochloride) [Compound 50, 5-Amino-7-[4-(cyclopropylmethyl)piperazin-1-ylmethyl]-2-(2-furyl)[1,2,4]triazolo[1,5-c]pyrimidine dihydrochloride]", "melting point": "270 °C (dec.)"}, {"smiles": "COCC(C)NCc1ccccc1-c1cc2nc(-c3ccco3)nn2c(N)n1", "note": "(racemic) (as salt: hydrochloride) [Compound 9, (±)-5-Amino-2-(2-furyl)-7-[{2-[(2-methoxy-1-methylethyl)aminomethyl]phenyl}(1,2,4]triazolo[1,5-c]pyrimidinemonohydrochloride]", "melting point": "178.9 to 179.7 °C"}, {"smiles": "Nc1nc(-c2ccccc2C=O)cc2nc(-c3ccco3)nn12", "note": "[Compound 2, 5-Amino-7-(2-formylphenyl)-2-(2-furyl)[1,2,4]triazolo[1,5-c]pyrimidine]", "melting point": "224 to 224.5 °C"}, {"smiles": "COc1ccc(CNCc2ccccc2-c2cc3nc(-c4ccco4)nn3c(N)n2)cc1OC", "note": "[Compound 3, 5-Amino-7-[2-(3,4-dimethoxybenzylaminomethyl)phenyl]-2-(2-furyl) [1,2,4]triazolo[1,5-c]pyrimidine]", "melting point": "168 to 168.7 °C"}, {"smiles": "Nc1nc(-c2ccccc2CNCCc2ccccn2)cc2nc(-c3ccco3)nn12", "note": "[Compound 4, 5-Amino-2-(2-furyl)-7-{2-[2-(2-pyridyl)ethylaminomethyl]-phenyl}[1,2,4]triazolo[1,5-c]pyrimidine]", "melting point": "179.2 to 180 °C"}, {"smiles": "Nc1nc(-c2ccc(C=O)cc2)cc2nc(-c3ccco3)nn12", "note": "[Compound 10, 5-Amino-7-(4-formylphenyl)-2-(2-furyl)[1,2,4]triazolo[1,5-c]pyrimidine]", "melting point": "273.5 to 274 °C"}, {"smiles": "Nc1nc(-c2cccc(C=O)c2)cc2nc(-c3ccco3)nn12", "note": "[Compound 18, 5-Amino-7-(3-formylphenyl)-2-(2-furyl)[1,2,4]triazolo[1,5-c]pyrimidine]", "melting point": "212.8 to 213.2 °C"}, {"smiles": "Nc1nc(-c2cccc(CNCCc3ccccn3)c2)cc2nc(-c3ccco3)nn12", "note": "[Compound 19, 5-Amino-2-(2-furyl)-7-{3-[2-(2-pyridyl)ethylaminomethyl]-phenyl}[1,2,4]triazolo[1,5-c]pyrimidine]", "melting point": "159.2 to 159.4 °C"}]}]}
